The values that follow come from US8895579B2, “Heterotricyclic AMPA receptor antagonists for treatment of epilepsy, pain, and other neurological disorders and diseases” (Northwestern University, priority 2010, dated 2014).

Where “and” joins values, the source holds several entries; their conditions need not be identical. Equal values may be shown once.

The subject of experiment [1] is AMPA receptor-mediated EPSCs in primary hippocampal neurons. Nature of the experiment: AMPA receptor EPSC charge transfer during spontaneous synaptic bursts, whole-cell voltage clamp, cultured hippocampal neurons. The format is cell-based. As to conditions: 30 μM. As to the method:
(§1) Experiments involving primary hippocampal neurons were carried out as described previously (Vivithanaporn et al., 2007). Dissociated neurons were cultured from E18 prenatal hippocampi and were used for analysis from between 17 and 28 days in vitro. The extracellular solution was the same as used for recombinant receptor analysis, while the internal solution for voltage clamp recordings contained (in mM) 95 CsF, 25 CsCl, 10 Cs-HEPES, 10 EGTA, 2 NaCl, 2 Mg-ATP, 10 QX-314, 5 TEA. and 5 4-AP (pH 7.3) and the internal solution for current clamp recordings contained (in mM) 120 KMeSO4, 5 KCl, 5 NaCl, 1 MgCl2, 11 Na-HEPES, 10 phosphocreatine, 4 Na-ATP, and 0.3 Na-GTP (pH 7.0). Borosilicate patch electrodes were pulled and fire polished to 3-5 MΩ resistance. Both whole cell current clamp and voltage clamp recordings were performed using an Axopatch 200B amplifier (MDS, Sunnyvale, Calif.) and filtered at 20 kHz. Gigaohm seals were established in voltage clamp mode and, after membrane rupture, the recordings were carried out either in voltage clamp (clamped at Vm=−70 mV) with a […] series resistance, which was compensated to ˜60%, or in current clamp mode ([…]) with the bridge balance was corrected and pipette resistance neutralized. In vitro status epilepticus (SE) was induced as described previously (Deshpande et al., 2007; Pal et al., 1999) and action potentials were recorded in current clamp mode. Briefly for in vitro SE, magnesium-containing external solution was exchanged for external solution without magnesium and supplemented with 2 μM glycine. This solution exchange produced a period of rapid depolarization and increased AP firing, followed by a period of channel inactivation and reduced AP firing. After channel inactivation, neurons characteristically would hyperpolarize to hold at a membrane voltage (Vm) which was depolarized relative to control Vm, with an increase in AP firing frequency. […] External solutions were bath-applied at a flow rate of 1.5-2 ml/minute. After recording a basal control period, IKM compounds were applied for five minutes (10 minutes for in vitro SE experiments) and changes in excitatory post-synaptic current (EPSC) charge transfer or action potential (AP) frequency were analyzed during the last two minutes of IKM application.
We first measured the actions of the IKM compounds on the charge transfer during spontaneously occurring, polysynaptic bursts of AMPA receptor excitatory post-synaptic currents (EPSCs) in cultured hippocampal neurons (recorded in the presence of bicuculline methiodide and picrotoxin to inhibit GABAA receptors and D-APV to inhibit NMDA receptors). […] IKM-159 had the greatest inhibitory effect at a fixed concentration of 30 μM, producing a reduction in charge transfer of 65±5% (n=6, p<0.01). […] Despite the polar chemical nature of the compounds, recoveries to basal EPSC charge transfers were minimal.

Experiment [2] concerns the target T1, GluA4 (Rattus norvegicus, UniProt P19493).
T1 construct: expressed in transfected cells; host or cells: HEK293-T/17 (CRL-11268)
The experiment in a line: [3H]-AMPA radioligand binding, membranes of HEK293-T/17 cells expressing GluA4. As to conditions: 100 μM. How it is done: Radioligand binding. HEK293-T/17 cells were transfected with 5 μg of iGluR cDNA in 100 mm^2 culture dishes. Two days post transfection, the plates were washed twice with ice-cold Dulbecco's phosphate-buffered saline (DPBS) and then incubated with 50 mM Tris (pH 7.4) and 1 mM EDTA for three minutes on ice. Cells were collected and centrifuged for five minutes at 800 g at room temperature. The cell pellet was homogenized in 50 mM Tris (pH 7.4) containing 320 mM sucrose (homogenization buffer, HB) on ice using a glass dounce homogenizer and centrifuged at 4° C. for 10 minutes at 800 g. The supernatant, containing the membrane fragments, was saved and the remaining pellet containing nuclei and unbroken cells was resuspended in HB. This homogenization process was repeated two more times and after collection of the final resulting supernatant, the remaining pellet was discarded. The collected supernatants were centrifuged at 4° C. for 20 minutes at 20000 g and the resulting supernatant was discarded leaving a membrane-containing pellet. The pellets were resuspended in freshly prepared binding buffer containing (in mM) 50 Tris (pH 7.2), 2.5 CaCl2, 10% glycerol and 100 KSCN (for AMPA receptors) or exclusively 50 Tris (pH 7.4) (for kainate receptors). Membrane protein (50-100 μg) was combined with radiolabeled ligand (10 nM [^3H]-KA or 20 nM [^3H]-AMPA for kainate receptor and AMPA receptor binding, respectively), alone or with 100 μM of IKM-159, and then incubated for 1 h at 4° C. Non-specific binding was determined as the amount of radioligand bound in the presence of a saturating concentration of glutamate (1 mM). Total binding was determined as the amount of radioligand bound in the absence of any competing ligands minus the non-specific binding. […] Data were presented as a percentage of the total binding. All experimental conditions were performed in duplicate in each assay and then averaged for each trial.

For experiment [3], the target named is T2, GluA1 (Rattus norvegicus, UniProt P19490).
T2 construct: expressed in transfected cells; host or cells: HEK293-T/17 (CRL-11268)
Nature of the experiment: [3H]-AMPA radioligand binding, membranes of HEK293-T/17 cells expressing GluA1. As to conditions: 100 μM; 20 nM [3H]-AMPA; 1 h at 4° C. As to the method:
Radioligand binding. HEK293-T/17 cells were transfected with 5 μg of iGluR cDNA in 100 mm^2 culture dishes. Two days post transfection, the plates were washed twice with ice-cold Dulbecco's phosphate-buffered saline (DPBS) and then incubated with 50 mM Tris (pH 7.4) and 1 mM EDTA for three minutes on ice. Cells were collected and centrifuged for five minutes at 800 g at room temperature. The cell pellet was homogenized in 50 mM Tris (pH 7.4) containing 320 mM sucrose (homogenization buffer, HB) on ice using a glass dounce homogenizer and centrifuged at 4° C. for 10 minutes at 800 g. The supernatant, containing the membrane fragments, was saved and the remaining pellet containing nuclei and unbroken cells was resuspended in HB. This homogenization process was repeated two more times and after collection of the final resulting supernatant, the remaining pellet was discarded. The collected supernatants were centrifuged at 4° C. for 20 minutes at 20000 g and the resulting supernatant was discarded leaving a membrane-containing pellet. […] Non-specific binding was determined as the amount of radioligand bound in the presence of a saturating concentration of glutamate (1 mM). Total binding was determined as the amount of radioligand bound in the absence of any competing ligands minus the non-specific binding. […]

Experiment [4] has as its system primary hippocampal neurons. The experiment in a line: Spontaneous action potential firing, current clamp, cultured hippocampal neurons. The conditions noted are these: 20 μM. The format is cell-based. As to the method:
as §1
Effects of IKM-159 on neuronal excitability. […] To determine if altered neuronal excitability could contribute to this behavioral phenotype, we examined the effect of IKM-86 and IKM-159 on action potential firing in cultured hippocampal neurons. Spontaneous action potentials were recorded in current-clamp mode before, during and after application of 20 μM IKM-86 and IKM-159. […]

T1 sequence (P19493 21-902 isoform P19493-2 limits assumed): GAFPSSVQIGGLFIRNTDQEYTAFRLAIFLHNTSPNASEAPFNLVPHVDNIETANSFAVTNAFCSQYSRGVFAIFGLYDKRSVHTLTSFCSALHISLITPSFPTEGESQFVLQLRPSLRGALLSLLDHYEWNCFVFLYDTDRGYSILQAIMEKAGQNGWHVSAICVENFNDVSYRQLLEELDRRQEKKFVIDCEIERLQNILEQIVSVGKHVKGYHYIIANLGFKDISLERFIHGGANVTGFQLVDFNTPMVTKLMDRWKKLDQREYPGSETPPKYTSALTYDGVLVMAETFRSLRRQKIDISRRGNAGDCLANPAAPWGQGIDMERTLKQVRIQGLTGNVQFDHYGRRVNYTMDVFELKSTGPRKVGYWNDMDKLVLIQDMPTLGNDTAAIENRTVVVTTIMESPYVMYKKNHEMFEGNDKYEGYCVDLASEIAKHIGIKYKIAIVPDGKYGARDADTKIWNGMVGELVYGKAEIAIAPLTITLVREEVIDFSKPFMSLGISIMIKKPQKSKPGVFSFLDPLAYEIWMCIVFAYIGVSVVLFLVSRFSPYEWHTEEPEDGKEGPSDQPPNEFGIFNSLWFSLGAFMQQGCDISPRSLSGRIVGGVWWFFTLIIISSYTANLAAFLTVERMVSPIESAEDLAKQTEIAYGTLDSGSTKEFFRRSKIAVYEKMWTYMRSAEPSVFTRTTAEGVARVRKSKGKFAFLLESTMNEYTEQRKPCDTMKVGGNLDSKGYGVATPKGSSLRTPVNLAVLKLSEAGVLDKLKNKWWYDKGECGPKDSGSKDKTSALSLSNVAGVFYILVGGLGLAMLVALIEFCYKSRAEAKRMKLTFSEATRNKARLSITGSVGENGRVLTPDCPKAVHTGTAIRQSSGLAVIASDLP
T2 sequence (P19490 19-907 isoform P19490-2 limits assumed): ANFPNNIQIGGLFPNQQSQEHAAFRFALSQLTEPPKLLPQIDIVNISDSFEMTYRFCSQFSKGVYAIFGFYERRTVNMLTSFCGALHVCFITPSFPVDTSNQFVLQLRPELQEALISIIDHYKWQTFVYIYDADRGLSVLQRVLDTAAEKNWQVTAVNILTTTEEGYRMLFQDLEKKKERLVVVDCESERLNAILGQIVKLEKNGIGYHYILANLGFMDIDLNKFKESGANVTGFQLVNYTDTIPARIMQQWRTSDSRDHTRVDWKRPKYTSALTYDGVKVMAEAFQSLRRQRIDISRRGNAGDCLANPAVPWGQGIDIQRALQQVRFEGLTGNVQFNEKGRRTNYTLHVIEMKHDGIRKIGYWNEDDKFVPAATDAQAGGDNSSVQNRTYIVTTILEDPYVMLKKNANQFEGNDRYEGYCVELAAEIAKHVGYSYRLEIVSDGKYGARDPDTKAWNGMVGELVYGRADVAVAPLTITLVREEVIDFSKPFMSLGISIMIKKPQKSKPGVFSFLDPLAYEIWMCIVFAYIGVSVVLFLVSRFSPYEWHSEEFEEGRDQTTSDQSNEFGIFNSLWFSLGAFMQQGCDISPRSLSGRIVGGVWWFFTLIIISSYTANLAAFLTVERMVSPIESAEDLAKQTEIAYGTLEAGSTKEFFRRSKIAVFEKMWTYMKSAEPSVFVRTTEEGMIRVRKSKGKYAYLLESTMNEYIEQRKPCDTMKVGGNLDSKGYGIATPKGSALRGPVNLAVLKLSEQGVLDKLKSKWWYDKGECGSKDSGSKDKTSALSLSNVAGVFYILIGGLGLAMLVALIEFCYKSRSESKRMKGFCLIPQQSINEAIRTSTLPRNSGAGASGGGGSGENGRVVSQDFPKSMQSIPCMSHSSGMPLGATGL

Turning to `O=C(O)C[C@@]12O[C@H]3C=CCN[C@H]3C1CN[C@H]2C(=O)O` (some centres unmarked) [IKM-159], the “reduction from control charge transfer” value in experiment [1] turned out to be 65±5%. For the same compound, the “charge transfer during bursts of AMPA receptor-mediated synaptic events as a percent of the charge transfer during the control period” value in experiment [1] (voltage clamped at −70 mV) is recorded as 35±5%. The “[3H]AMPA bound as percent of total (specific) binding in absence of competing ligand” value in experiment [2] (20 nM [3H]-AMPA, 1 h at 4° C.) is 90±6%; in experiment [3], 135±23% and 134±23%. Further, the results for the “bound radioligand ([3H]-AMPA)” value in experiment [2] (1 h pre-incubation prior to addition of the radioligand) and in experiment [2] (2 h incubation with [3H]-AMPA) were 100% and 113%, respectively. Further, the “persistence of reduction in action potential firing frequency after removal of compound” value in experiment [4] was “prolonged”. Besides, the “action potential firing frequency in presence of compound” value in experiment [4] (basal (spontaneous) firing) was determined as 0.5±0.04 Hz.
